Legend:
[1] = system: lenti-GLDC shRNA-insulted mice; assay: Barnes maze spatial learning and memory in lenti-GLDC shRNA-insulted mice; assay type: in vivo, C57/BL6 mice; conditions: 50 and 100 mg/kg body wt/d, daily gavage, after 7 d of treatment
Experimental: FIG. 1A-1B. […] C57/BL6 mice (8-10 week old) received lentiviral GLDC shRNA (1×10^7 IFU/mouse in 100 μl Hank's Balanced Salt Solution or HBSS) once via tail-vein injection. Therefore, control mice also received 100 μl HBSS via tail-vein. From 7 d after lenti-GLDC shRNA injection, mice were treated with different doses (50 and 100 mg/kg body wt/d) of CA daily via gavage. After 7 d of CA treatment, spatial learning and memory was monitored by Barnes maze (FIG. 1A, latency; FIG. 1B, errors). Results are mean±SEM of five mice per group.
(§1) C57/BL6 mice (8-10 week old) received lentiviral GLDC shRNA (1×10^7 IFU/mouse in 100 μl Hank's Balanced Salt Solution or HBSS) once via tail-vein injection (FIG. 1). Therefore, a group of control mice received only 100 μl HBSS via tail-vein injection.
(§2) Therefore, one group of lenti-GLDC shRNA-insulted mice were also treated with 100 μl 0.5% methyl cellulose as vehicle control.
Lenti-GLDC shRNA-insulted mice took longer time to find the correct hole (FIG. 1A) and made more errors (FIG. 1B) as compared to HBSS-treated control mice.

[2] = system: lenti-GLDC shRNA-insulted mice; assay: Glycine level in cortex of lenti-GLDC shRNA-insulted mice (fluorometric assay kit); assay type: in vivo, C57/BL6 mice; conditions: oral, 14 d of treatment
Experimental: FIG. 2. […] C57/BL6 mice (8-10 week old) received lentiviral GLDC shRNA (1×10^7 IFU/mouse in 100 μl HBSS) once via tail-vein injection. Therefore, control mice also received 100 μl HBSS via tail-vein. From 7 d after lenti-GLDC shRNA injection, mice were treated with different doses (50 and 100 mg/kg body wt/d) of CA daily via gavage. After 14 d of CA treatment, the level of glycine was measured in cortex by using a fluorometric assay kit (Biovision). Each mouse sample was run in triplicate. Results are mean±SEM of five mice per group.
as §1, §2
On 14 d of treatment, mice were sacrificed and level of glycine was measured in brain (cortex).

Q: With `O=C(O)C=Cc1ccccc1` [cinnamic acid] as the compound, how does the “errors in reaching the target hole (Barnes maze)” value [1] read?
A: Its value is “significantly reduced latency and errors”.

Q: And the “latency in reaching the target hole (Barnes maze)” value [1]?
A: Its value is “significantly reduced latency”.

Q: And the “level of glycine in the cortex” value ([2]; 50 mg/kg body wt/d)?
A: Its value is “very effective in lowering the level of glycine”.

Q: What about the “level of glycine in the cortex” value ([2]; 50 and 100 mg/kg body wt/d) of the same compound?
A: Its value is “strongly inhibited the level of glycine”.

From patent publication US12478598B2 (Rush University Medical Center, priority 2019, dated 2025)
